Test results: patent publication US20060263802A1 (priority 2003, published 2006)

Legend:
Type in all cases: binding
[1] = system: human monoclonal antibody CRJB
[2] = system: human monoclonal antibody CRJA
[3] = system: human monoclonal antibody CRJB; remark: listed apart in the source
[4] = system: human monoclonal antibody CR57
[5] = system: human monoclonal antibody CRJA; remark: listed apart in the source
[6] = system: human monoclonal antibody CR57; remark: listed apart in the source

Sequence | Binding of CRJB to linear peptide (PEPSCAN-ELISA signal) [1] | Binding of CRJA (10 μg/ml) to looped/cyclic peptide (PEPSCAN-ELISA) [2] | Binding of CRJB (10 μg/ml) to looped/cyclic peptide (PEPSCAN-ELISA) [3] | Binding of CR57 (10 μg/ml) to looped/cyclic peptide (PEPSCAN-ELISA) [4] | Binding of CRJA to linear peptide (PEPSCAN-ELISA signal) [5] | Binding of CR57 to linear peptide (PEPSCAN-ELISA signal) [6] | Binding of CRJA (10 μg/ml) to looped/cyclic peptide (PEPSCAN-ELISA signal) [2] | Binding of CRJB (10 μg/ml) to looped/cyclic peptide (PEPSCAN-ELISA signal) [3] | Binding of CR57 (10 μg/ml) to looped/cyclic peptide (PEPSCAN-ELISA signal) [4]
HLRKLVPGFGKAYTI | 111 | 120 | 93 | 118 | 116 | 99 | – | – | –
TNHDYTIWMPENPRL | 129 | – | – | – | 91 | 69 | 72 | 58 | 40
MPENPRLGMSCDIFT | 121 | – | – | – | 107 | 105 | 111 | 87 | 107
NVLIPEMQSSLLQQH | 120 | 110 | 99 | 97 | 92 | 72 | – | – | –
TLMEADAHYKSVRTW | 114 | 89 | 87 | 89 | 111 | 100 | – | – | –
TVKTTKESLVIISPS | 116 | – | – | – | 93 | 76 | 92 | 55 | 94
LQQHMELLESSVIPL | 134 | 108 | 93 | 136 | 91 | 106 | – | – | –
STYCSTNHDYTIWMP | 99 | – | – | – | 79 | 86 | 90 | 82 | 90
NKTLMEADAHYKSVR | 116 | 98 | 97 | 120 | 94 | 104 | – | – | –
DPRYEESLHNPYPDY | 110 | – | – | – | 92 | 57 | 91 | 65 | 76
EMQSSLLQQHMELLE | 129 | 88 | 98 | 78 | 94 | 58 | – | – | –
EADAHYKSVRTWNEI | 97 | 63 | 76 | 78 | 79 | 58 | – | – | –
